Reference: US10392389B2, “Heterocyclic compounds for the inhibition of PASK” (BioEnergenix, LLC, priority 2012, dated 2019)

What was measured:
[1] = In vivo pharmacokinetics in the Sprague Dawley rat; conditions: formulation as in Table 5
Experimental: Pharmacokinetics of a PASK Inhibitor
The in vivo pharmacokinetics of Examples 12, 17, 43, and 51 were evaluated in the Sprague Dawley rat. Blood samples were collected at 0.083, 0.25, 0.5, 1, 2, 4, 6, 8, and 24 hours and the samples were analyzed for test compounds content using LC/MS/MS. The data was submitted to pharmacokinetic analysis using WinNonLin software and the observed and calculated pharmacokinetic parameters are shown in Table 5 for each compound.

PASK (Invitrogen) = target: T1, PASK (Invitrogen) (Homo sapiens, UniProt Q96RG2); assay: PAS Kinase FRET Assay; type: biochemical; conditions: PAS kinase TR-FRET assay (665 nm/615 nm); read-out: IC50 Kinase Domain
T1 construct: IC50 Kinase Domain; purchased Invitrogen
Summary of the method: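 PASK phosphorylates a ULight-peptide with ATP in 50 mM HEPES, 10 mM MgCl2, 1 mM EGTA, 0.01% Tween-20, 2 mM DTT for 2 h at 25° C in the dark. Compounds are added as 4× serial dilutions (top 12×10^−5 M at 4×). After stopping, an Eu anti-phospho-substrate antibody is added for 1 h and TR-FRET is read at 665/615 nm.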

[2] = target: T2, CK2a2 (NP_001887; human full-length protein, GST tagged) (Homo sapiens, UniProt P19784); assay: Biochemical Assay for CK2 Activity; conditions: 33P-ATP radiochemical assay, CK2 sub [RRRDDDSDDD]
T2 construct: human full-length protein, GST tagged; GST; host or cells: insect cells
Experimental: Biochemical Assay for CK2 Activity
(§1) Purified CK2a2 (NP_001887; human full-length protein, GST tagged) from insect cells (final concentration 1.2 nM) is added to freshly prepared Base Reaction Buffer containing 20 mM Hepes (pH 7.5), 10 mM MgCl2, 1 mM EGTA, 0.02% Brij35, 0.02 mg/ml BSA, 0.1 mM Na3VO4, 2 mM DTT, 1% DMSO and CK2 sub [RRRDDDSDDD] (20 μM final). Test compounds in DMSO are then added and the mixture, followed by delivery of ^33P-ATP (specific activity 0.01 μCi/μl final) to initiate the reaction. The kinase reaction is incubated for 120 min at room temperature. The entire reaction mixture is washed through onto a P81 Phosphocellulose paper and washed three times for 10 minutes in 75 mM phosphoric acid and once in methanol prior to drying and scintillation counting.

[3] = target: T3, PIM1 (NP_002639; human full-length protein, 6×His tagged) (Homo sapiens, UniProt P11309); assay: Biochemical Assay for PIM1 Activity; conditions: 33P-ATP radiochemical assay, S6K/Rsk2 peptide 2 substrate
T3 construct: human full-length protein, 6×His tagged; 6xHis; host or cells: insect cells
Experimental: Biochemical Assay for PIM1 Activity
as §1, with “PIM1 (NP_002639;” for “CK2a2 (NP_001887;”, “6×His” for “GST”, “1.0” for “1.2”, “substrate S6K/Rsk2 peptide 2 [KKRNRTLTK]” for “CK2 sub [RRRDDDSDDD]”, “10” for “0.01”

PASK = target: T4, PASK (UniProt #Q96RG2; human recombinant N-terminal GST tagged construct, residues 879-1323) (Homo sapiens, UniProt Q96RG2); assay: PASK ATP Radiochemical Assay; type: biochemical; conditions: 33P-ATP, Myelin Basic Protein substrate, read-out: IC50 Kinase Domain
T4 construct: N-terminal GST tagged construct, residues 879-1323; GST (N); host or cells: insect cells
Summary of the method: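 Insect-cell GST-PASK (residues 879-1323, 5 nM final) phosphorylating 20 μM myelin basic protein with ^33P-ATP (0.01 μCi/μl final). Buffer 20 mM HEPES pH 7.5, 10 mM MgCl2, 1% DMSO. Reaction ran 120 min at room temperature; P81 filter binding and scintillation counting.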

T1 sequence (Q96RG2 999-1251 limits assumed): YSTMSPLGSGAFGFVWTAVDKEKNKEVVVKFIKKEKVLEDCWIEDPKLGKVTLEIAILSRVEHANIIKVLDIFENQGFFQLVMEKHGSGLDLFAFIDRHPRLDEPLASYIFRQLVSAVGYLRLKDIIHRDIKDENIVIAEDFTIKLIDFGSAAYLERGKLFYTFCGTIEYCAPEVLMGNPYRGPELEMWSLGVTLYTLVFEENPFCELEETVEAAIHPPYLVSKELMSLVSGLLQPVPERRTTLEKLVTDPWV
T2 sequence (P19784 whole entry): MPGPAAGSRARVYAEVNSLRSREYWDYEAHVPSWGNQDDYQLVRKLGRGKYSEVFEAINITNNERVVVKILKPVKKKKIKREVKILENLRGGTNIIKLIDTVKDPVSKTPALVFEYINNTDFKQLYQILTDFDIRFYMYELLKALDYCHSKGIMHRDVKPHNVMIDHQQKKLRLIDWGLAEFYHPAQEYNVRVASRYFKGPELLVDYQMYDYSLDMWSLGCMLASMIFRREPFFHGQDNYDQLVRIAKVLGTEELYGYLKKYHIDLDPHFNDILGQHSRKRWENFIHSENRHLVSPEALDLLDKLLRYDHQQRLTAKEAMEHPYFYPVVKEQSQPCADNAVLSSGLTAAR
T3 sequence (P11309 whole entry): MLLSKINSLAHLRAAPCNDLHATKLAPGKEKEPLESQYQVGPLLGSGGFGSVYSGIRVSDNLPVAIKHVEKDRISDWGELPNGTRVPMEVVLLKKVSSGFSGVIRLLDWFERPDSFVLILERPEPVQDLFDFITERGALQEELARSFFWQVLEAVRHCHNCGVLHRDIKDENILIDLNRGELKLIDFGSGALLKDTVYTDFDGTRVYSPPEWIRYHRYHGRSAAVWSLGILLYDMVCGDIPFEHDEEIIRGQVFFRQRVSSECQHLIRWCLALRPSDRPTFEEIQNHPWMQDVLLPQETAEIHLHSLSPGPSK
T4 sequence (Q96RG2 879-1323, stated change not applied): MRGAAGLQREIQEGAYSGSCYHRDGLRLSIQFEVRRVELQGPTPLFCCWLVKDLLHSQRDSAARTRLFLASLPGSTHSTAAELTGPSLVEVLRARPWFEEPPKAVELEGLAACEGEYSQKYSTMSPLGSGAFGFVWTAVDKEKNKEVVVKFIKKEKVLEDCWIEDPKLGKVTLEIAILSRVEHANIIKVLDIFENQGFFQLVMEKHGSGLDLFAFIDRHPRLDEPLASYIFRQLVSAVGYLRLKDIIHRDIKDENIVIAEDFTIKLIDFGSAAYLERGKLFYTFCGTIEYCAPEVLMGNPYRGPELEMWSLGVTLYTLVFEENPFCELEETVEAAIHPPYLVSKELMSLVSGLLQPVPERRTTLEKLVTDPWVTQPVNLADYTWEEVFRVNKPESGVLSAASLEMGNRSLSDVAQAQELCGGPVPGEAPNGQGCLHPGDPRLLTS

Structure (SMILES)	Cl (clearance) ([1]; IV, 3 mg/kg)	Vss (volume of distribution) ([1]; IV, 3 mg/kg)	t1/2 (half-life) ([1]; IV, 3 mg/kg)	F (oral bioavailability) ([1]; PO, 10 mg/kg)	Tmax (Time to maximum blood concentration after an oral dose) ([1]; PO, 10 mg/kg)	t1/2 (half-life) ([1]; PO, 10 mg/kg)	IC50 (PASK (Invitrogen))	IC50 [2]	IC50 [3]	IC50 (PASK)
CCn1ncc2cc(-c3cc(=O)n4ncc(-c5nc(C)no5)c4[nH]3)ccc21 [Example 43, 5-(1-ethyl-1H-indazol-5-yl)-3-(3-methyl-1,2,4-oxadiazol-5-yl)-4H,7H-pyrazolo[1,5-a]pyrimidin-7-one]	23.9 mL/min/kg	0.719 L/kg	1.62 h	44.7%	0.5 h	3.35 h	≤ 10 µM	–	–	–
COc1cc(-c2cc(=O)n3ncc(-c4ccnn4C)c3[nH]2)ccc1Cl [Example 51, 5-(4-chloro-3-methoxyphenyl)-3-(1-methyl-1H-pyrazol-5-yl)pyrazolo[1,5-a]pyrimidin-7(4H)-one]	62 mL/min/kg	0.71 L/kg	0.38 h	1.17%	0.25 h	2.62 h	≤ 10 µM	–	–	–
CCn1ncc2cc(-c3cc(=O)n4ncc(-c5ncc(C)o5)c4[nH]3)ccc21 [Example 12, 5-(1-ethyl-1H-indazol-5-yl)-3-(5-methyl-1,3-oxazol-2-yl)-4H,7H-pyrazolo[1,5-a]pyrimidin-7-one]	8.76 mL/min/kg	0.35 L/kg	3.75 h	46.5%	0.5 h	2.38 h	≤ 10 µM	–	–	–
COc1cc(-c2cc(=O)n3ncc(-c4ncc(C)o4)c3[nH]2)ccc1Cl [Example 17, 5-(4-chloro-3-methoxyphenyl)-3-(5-methyl-1,3-oxazol-2-yl)-4H,7H-pyrazolo[1,5-a]pyrimidin-7-one]	6.19 mL/min/kg	0.61 L/kg	8.3 h	42%	4 h	2.12 h	≤ 10 µM	≤ 10 µM	≤ 10 µM	≤ 10 µM
